Data taken from the NIST ThermoML archive (doi:10.1016/j.jct.2004.07.025).
Where “and” joins values, the source holds several entries; their conditions need not be identical. Equal values may be shown once.

Details: Liquid

CCOC(=O)c1ccccc1C(=O)OCC [diethyl phthalate]
Details | vapor or sublimation pressure
303.19 K, Calculated from knudsen effusion weight loss | 0.000165 kPa
307.62 K, Calculated from knudsen effusion weight loss | 0.00026 kPa
308.1 K, Calculated from knudsen effusion weight loss | 0.000271 kPa
313.34 K, Calculated from knudsen effusion weight loss | 0.000456 kPa
318.54 K, Calculated from knudsen effusion weight loss | 0.000769 kPa
323.04 K, Calculated from knudsen effusion weight loss | 0.00116 kPa
323.33 K, Calculated from knudsen effusion weight loss | 0.001179 kPa
328.33 K, Calculated from knudsen effusion weight loss | 0.001842 kPa
333.55 K, Calculated from knudsen effusion weight loss | 0.002839 kPa
333.58 K, Calculated from knudsen effusion weight loss | 0.002895 kPa
333.68 K, Calculated from knudsen effusion weight loss | 0.00286 kPa
335.05 K, Closed cell (Static) method | 0.0037 kPa
335.07 K, Closed cell (Static) method | 0.0037 kPa
337.65 K, Calculated from knudsen effusion weight loss | 0.003873 kPa
338.68 K, Calculated from knudsen effusion weight loss | 0.004379 kPa
343.7 K, Calculated from knudsen effusion weight loss | 0.006569 kPa
344.41 K, Closed cell (Static) method | 0.0076 kPa
344.43 K, Closed cell (Static) method | 0.0077 kPa
354.01 K, Closed cell (Static) method | 0.0158 kPa
354.03 K, Closed cell (Static) method | 0.0159 kPa
363.15 K, Closed cell (Static) method | 0.0304 kPa
363.16 K, Closed cell (Static) method | 0.0305 kPa
365.75 K, Closed cell (Static) method | 0.036 kPa and 0.0359 kPa
365.77 K, Closed cell (Static) method | 0.0363 kPa
375.29 K, Closed cell (Static) method | 0.0671 kPa
375.31 K, Closed cell (Static) method | 0.0671 kPa
384.96 K, Closed cell (Static) method | 0.121 kPa
394.42 K, Closed cell (Static) method | 0.21 kPa and 0.209 kPa and 0.207 kPa
394.43 K, Closed cell (Static) method | 0.208 kPa
394.47 K, Closed cell (Static) method | 0.207 kPa
403.73 K, Closed cell (Static) method | 0.346 kPa
403.77 K, Closed cell (Static) method | 0.347 kPa
404.25 K, Closed cell (Static) method | 0.352 kPa
404.27 K, Closed cell (Static) method | 0.352 kPa
413.4 K, Closed cell (Static) method | 0.568 kPa
413.43 K, Closed cell (Static) method | 0.569 kPa
414.26 K, Closed cell (Static) method | 0.585 kPa
414.27 K, Closed cell (Static) method | 0.586 kPa
424.06 K, Closed cell (Static) method | 0.94 kPa
424.09 K, Closed cell (Static) method | 0.94 kPa
479.25 K, Ebulliometric method (Recirculating still) | 8.318 kPa
487.77 K, Ebulliometric method (Recirculating still) | 11.06 kPa
494.93 K, Ebulliometric method (Recirculating still) | 13.9 kPa
501 K, Ebulliometric method (Recirculating still) | 16.77 kPa
507.32 K, Ebulliometric method (Recirculating still) | 20.26 kPa
513.93 K, Ebulliometric method (Recirculating still) | 24.53 kPa
520.32 K, Ebulliometric method (Recirculating still) | 29.35 kPa
